Experimental data as given in patent US20260048046A1, “METHOD FOR IMPROVING GROWTH PERFORMANCE IN FEEDLOT CATTLE” (Elanco US Inc., priority 2022, published 2026).

Test system: beef feedlot cattle
Test: 56-d study: animal mobility (NAMI mobility score)
Type: in vivo
Settings: for Percentage of steers, mobility score 1, Lairage / Percentage of steers, mobility score 2, Lairage / Percentage of steers, mobility score >2, Lairage / Percentage of steers, mobility score 1, Pen / Percentage of steers, mobility score 2, Pen / Percentage of steers, mobility score >2, Pen / Percentage of steers, mobility score 1, Loadout / Percentage of steers, mobility score 2, Loadout / Percentage of steers, mobility score >2, Loadout: final 56 d; for Percentage of steers, mobility score 1, Lairage / Percentage of steers, mobility score 2, Lairage / Percentage of steers, mobility score >2, Lairage: antemortem inspection at the packing plant; for Percentage of steers, mobility score 1, Pen / Percentage of steers, mobility score 2, Pen / Percentage of steers, mobility score >2, Pen: approx. 1 wk prior to harvest in home pens; for Percentage of steers, mobility score 1, Loadout / Percentage of steers, mobility score 2, Loadout / Percentage of steers, mobility score >2, Loadout: immediately prior to loading into trucks
Experimental: Animal mobility assessments were conducted three times prior to harvest at: 1) approximately 1 week prior to harvest while cattle were in their home pens; 2) after collection of final pen weights and immediately prior to loading into trucks for slaughter; and 3) at antemortem inspection during lairage at the packing plant. The mobility scorer used the North American Meat Institute's (NAMI) mobility scoring system (Edwards-Callaway et al., 2017) to evaluate cattle mobility.
The label claim variable of cumulative NH3 gas emissions over the treatment period normalized by final BW (with d −59 BW as a covariate) for the period and HCW (g of gas kg^−1 of BW or g of gas kg^−1 HCW) was determined by utilizing NH3 gas emissions equations developed from the LUB clinical effectiveness study (FDA-FOI, 2018) and validated using animals of similar BW as described by Brown et al. (2019). The pen was the experimental unit for each outcome. Differences were deemed significant using a two-sided test at Ptrt≤0.05, however, a less stringent significance threshold of Ptrt≤0.10 was used for abnormal health observations. Fixed effect of treatment and random effects of time replicate and block within time replicate were included in the model. Discrete variables were analyzed using a generalized linear mixed model, Proc GLIMMIX SAS version 9.4 unless there were convergence problems due to sparseness of data. A binomial distribution was assumed and a logit link used in the analysis. Contrasts were constructed between the CON group and each non-CON dosage group, and differences were deemed significant at Pdose≤0.05. If convergence problems arose due to sparseness of data, Fisher's exact test (binomial data; Proc FREQ in SAS) or Wilcoxon's rank-sum test (categorical data; Proc NARIWAY in SAS) was used to evaluate differences between the CON group and the non-CON dosage groups. In all cases except for health observations, differences were deemed significant at Ptrt≤0.05 for these primary discrete variables. Additionally, non-CON dosage groups were compared to one another using a significance level of Pdose≤0.05. A less stringent Ptrt≤0.10 level of significance was used for health observations.

## CC(C)(Cc1ccc(Oc2ncccc2C#N)cc1)NC[C@H](O)COc1ccccc1-c1cccs1 [LUB, 2-{4-[2-({(2S)-2-Hydroxy-3-[2-(2-thienyl)phenoxy]propyl}amino)-2-methylpropyl]phenoxy}nicotinonitrile]
1.5 mg·kg^−1 DM
  Percentage of steers, mobility score 1, Lairage: 80.2%
  Percentage of steers, mobility score 2, Lairage: 11.8%
  Percentage of steers, mobility score >2, Lairage: 8.0%
  Percentage of steers, mobility score 1, Pen: 85.0%
  Percentage of steers, mobility score 2, Pen: 11.4%
  Percentage of steers, mobility score >2, Pen: 3.6%
  Percentage of steers, mobility score 1, Loadout: 76.6%
  Percentage of steers, mobility score 2, Loadout: 21.4%
  Percentage of steers, mobility score >2, Loadout: 2.0%
3.5 mg·kg^−1 DM
  Percentage of steers, mobility score 1, Lairage: 81.7%
  Percentage of steers, mobility score 2, Lairage: 12.1%
  Percentage of steers, mobility score >2, Lairage: 6.2%
  Percentage of steers, mobility score 1, Pen: 85.9%
  Percentage of steers, mobility score 2, Pen: 10.4%
  Percentage of steers, mobility score >2, Pen: 3.7%
  Percentage of steers, mobility score 1, Loadout: 73.7%
  Percentage of steers, mobility score 2, Loadout: 23.1%
  Percentage of steers, mobility score >2, Loadout: 3.2%
5.5 mg·kg^−1 DM
  Percentage of steers, mobility score 1, Lairage: 80.9%
  Percentage of steers, mobility score 2, Lairage: 12.6%
  Percentage of steers, mobility score >2, Lairage: 6.5%
  Percentage of steers, mobility score 1, Pen: 86.9%
  Percentage of steers, mobility score 2, Pen: 8.3%
  Percentage of steers, mobility score >2, Pen: 4.8%
  Percentage of steers, mobility score 1, Loadout: 71.3%
  Percentage of steers, mobility score 2, Loadout: 25.0%
  Percentage of steers, mobility score >2, Loadout: 3.7%
56 d, all treatments, at all assessment times
  Cattle scoring a mobility score of 1 or 2: ≥ 92%
56 d, any assessment time point prior to harvest
  Animals receiving abnormal mobility scores of >2, across treatments: not different across treatments
56 d, any assessment time, Ptrt≥0.17
  Percent of cattle scored 1 (mobility), differences among treatments: No differences
56 d, at any time, Ptrt≥0.170
  Percent of cattle receiving mobility scores of 1 or 2, treatment differences: No treatment differences
